# Assay results as given in US8969565B2, “Imidazo[1,2-b]pyridazine-based compounds, compositions comprising them, and methods of their use” (Lexicon Pharmaceuticals, Inc., priority 2012, dated 2015).
# Target: T1, AAK1 (Homo sapiens, UniProt Q2M2I8)
# T1 construct: HA; expressed in transfected cells; host or cells: HEK293F
# Experiment: HEK281 cell-based assay (phospho-mu2 Western blot in transfected HEK293F cells)
# Details: 3 hours incubation, read-out: CBA IC50
# Procedure: HEK293F cells were cultured in media containing DMEM (Gibco, cat. #11965), 10% FBS (SAFC Biosciences, cat. #12103C), 1×GPS (glutamine, penicillin and streptomycin). On day one, cells were plated on a 10 cm dish so that they are ˜80% confluent at time of transfection. Roughly 12 million cells were in a 10 cm dish at time of transfection. On day two, each dish was transfected with 48 ug DNA and 144 ul Lipofectamine 2000 (Invitrogen, cat.#11668-019). The DNA was comprised of a mixture (per 10 cm dish) containing 3 ug AAK1/HA/pIRES (full length human, NCBI accession no. NP_055726.2), 45 μg Flag/AP2MI/pcDNA (full length human), and 1.5 ml OPTI-MEM. The Lipofectamine 2000 is made up of a mixture (per 10 cm dish) containing 144 μl Lipofectamine 2000 and 1.5 ml OPTI-MEM. Each mixture was transferred to individual 15 ml tubes and incubated at RT for 5 minutes, and then the two mixes were combined and incubated at RT for 20 minutes. Growth media was then aspirated from each 10 cm plate and replaced with 10 ml of DMEM+10% FBS (no GPS). Finally, 3 ml DNA/Lipofectamine mix was added to each 10 cm dish and mix gently followed by incubate of plate overnight at 37° C. and 5% CO2.
# On day three, compounds were diluted in 100% DMSO at 1000× final concentration, followed by 3-fold serial dilutions for a total of 5 concentrations tested. Four compounds were tested per 10 cm dish. One ul of each compound dilution was then pipetted into a deep-well, 96-well plate, followed by addition of 500 μl DMEM+0.5% FBS into each well for a 2× final concentration of each compound. Cells were resuspended in a 10 cm dish by simple pipetting (HEK293 cells come off the plate that easy at this point) and then transferred to a 50 ml conical tube and pelleted by centrifugation at 1000 rpm for 5 min. Cell pellets were then resuspended in 2.75 ml DMEM+0.5% FBS per 10 cm dish and 100 μl of cell suspension transferred into each well of 96-well TC plate. Finally, 100 μl of 2× compound diluted in DMEM+0.5% FBS was then added into wells containing cell suspension for a 1× final concentration. Plates were then incubated at 37° C. and 5% CO2 for 3 hours followed by transferring of cell suspensions from each well into 12-tube PCR strips. The PCR strips were spun in a tip rack at 1000 rpm for 5 minutes to pellet cells and media was then removed by pipetting without disturbing the cell pellet.
# To prepare for Western Blot analysis, cell pellets were resuspend in 40 ul 1×LDS-PAGE sample buffer (Invitrogen, cat.#NP0008)+2× Halt phophatase and protease inhibitor cocktail (Thermo Scientific, cat.#1861284), followed by sonicating each with microtip sonicator set at 5 for 8-10 seconds. Five ul of 10× NuPage Sample Reducing Agent (with 50 mM DTT) was to each sample followed by heat denaturing at 70 C for 10 min on PCR machine. A total of 10 μl per sample was loaded into each lane of a 4-20% Tris-Glycine Criterion 26-well gel (Biorad, cat.#345-0034) for the phospho-mu2 blot and 10 μl per lane in a 4-12% Bis-Tris (+MES buffer) NuPAGE 26-well gel (Invitrogen, cat.#WG1403BX10) for the mu2 blot. For controls, 2 ng of phospho-mu2 or 20 ng mu2/Flag proteins were loaded in the last well of each gel. After SDS-PAGE, samples on each gel were transferred to PVDF membrane using an iBlot and membranes were blocked for one hour in TBST+5% milk, followed by wash 3× for 5-10 min with TBST. Criterion gels were probed with rabbit anti-phospho-mu2 (1:5000; a rabbit polyclonal antibody produced by New England Peptide and affinity purified at Lexicon) in TBST+5% BSA, whereas, NuPAGE gels were probed with mouse anti-Flag (1:500; Sigma, cat.#F1804) in TBST+5% milk, and these primary antibodies were incubated overnight at 4° C. on a rocker.
# T1 sequence (Q2M2I8 1-863 isoform Q2M2I8-2): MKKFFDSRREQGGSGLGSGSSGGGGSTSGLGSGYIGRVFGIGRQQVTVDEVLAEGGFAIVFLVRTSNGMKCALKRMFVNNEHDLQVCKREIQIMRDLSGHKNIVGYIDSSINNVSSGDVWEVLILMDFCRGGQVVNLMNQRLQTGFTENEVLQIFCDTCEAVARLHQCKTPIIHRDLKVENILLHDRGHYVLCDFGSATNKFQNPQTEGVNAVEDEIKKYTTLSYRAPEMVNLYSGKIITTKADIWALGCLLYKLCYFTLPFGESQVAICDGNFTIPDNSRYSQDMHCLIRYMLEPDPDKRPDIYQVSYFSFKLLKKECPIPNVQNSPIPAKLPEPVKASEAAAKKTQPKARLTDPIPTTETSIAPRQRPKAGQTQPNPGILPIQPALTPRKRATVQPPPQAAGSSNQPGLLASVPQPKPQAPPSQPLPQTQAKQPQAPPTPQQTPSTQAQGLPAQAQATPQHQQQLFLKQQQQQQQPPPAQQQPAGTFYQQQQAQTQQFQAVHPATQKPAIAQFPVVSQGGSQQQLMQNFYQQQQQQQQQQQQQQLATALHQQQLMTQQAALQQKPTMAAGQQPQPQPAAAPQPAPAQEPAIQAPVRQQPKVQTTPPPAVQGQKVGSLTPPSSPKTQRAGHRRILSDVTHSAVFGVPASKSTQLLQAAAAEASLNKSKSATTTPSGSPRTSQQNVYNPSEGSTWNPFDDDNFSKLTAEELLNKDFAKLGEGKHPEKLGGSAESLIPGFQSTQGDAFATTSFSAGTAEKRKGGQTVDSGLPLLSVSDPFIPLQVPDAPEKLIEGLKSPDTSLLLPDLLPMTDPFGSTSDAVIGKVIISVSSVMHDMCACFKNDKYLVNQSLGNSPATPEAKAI
structure (smiles),measurement,value
"CC(C)(C)N1CCN(CCNc2ccc3ncc(-c4ccc(CN)cc4)n3n2)C1=O [1-(2-((3-(4-(aminomethyl)phenyl)imidazo[1,2-b]pyridazin-6-yl)amino)ethyl)-3-(tert-butyl)imidazolidin-2-one]",IC50,≤ 0.1 µM
"COc1cnccc1-c1cnc2ccc(N3CCN(C(=O)CC(C)(C)C)CC3)nn12 [1-(4-(3-(3-methoxypyridin-4-yl)imidazo[1,2-b]pyridazin-6-yl)piperazin-1-yl)-3,3-dimethylbutan-1-one]",IC50,≤ 0.1 µM
"CC(=O)c1ccc(-c2cnc3ccc(NCCN(C)c4ccccc4)nn23)s1 [1-(5-(6-((2-(methyl(phenyl)amino)ethyl)amino)imidazo[1,2-b]pyridazin-3-yl)thiophen-2-yl)ethanone]",IC50,≤ 0.1 µM
"CNCCCNc1ccc2ncc(-c3ccc(C(C)=O)s3)n2n1 [1-(5-(6-((3-(methylamino)propyl)amino)imidazo[1,2-b]pyridazin-3-yl)thiophen-2-yl)ethanone]",IC50,≤ 1 µM
"COCCCNc1ccc2ncc(-c3ccc(C(C)=O)s3)n2n1 [1-(5-(6-((3-methoxypropyl)amino)imidazo[1,2-b]pyridazin-3-yl)thiophen-2-yl)ethanone]",IC50,≤ 1 µM
"CCCCN(C)c1ccc2ncc(-c3ccc(C(C)=O)s3)n2n1 [1-(5-(6-(butyl(methyl)amino)imidazo[1,2-b]pyridazin-3-yl)thiophen-2-yl)ethanone]",IC50,≤ 0.1 µM
"CC(=O)c1ccc(-c2cnc3ccc(NCC(C)C)nn23)s1 [1-(5-(6-(isobutylamino)imidazo[1,2-b]pyridazin-3-yl)thiophen-2-yl)ethanone]",IC50,≤ 1 µM
"CCCNc1ccc2ncc(-c3ccc(C(C)=O)s3)n2n1 [1-(5-(6-(propylamino)imidazo[1,2-b]pyridazin-3-yl)thiophen-2-yl)ethanone]",IC50,≤ 1 µM
"COc1cnccc1-c1cnc2ccc(NCCN3CCN(C(C)(C)C)C3=O)nn12 [1-(tert-butyl)-3-(2-((3-(3-methoxypyridin-4-yl)imidazo[1,2-b]pyridazin-6-yl)amino)ethyl)imidazolidin-2-one]",IC50,≤ 0.1 µM
"COc1cnccc1-c1cnc2ccc(NCCN(C(=O)OCCF)C(C)C)nn12 [2-fluoroethyl isopropyl(2-((3-(3-methoxypyridin-4-yl)imidazo[1,2-b]pyridazin-6-yl)amino)ethyl)carbamate]",IC50,≤ 1 µM
"Cc1nc(C)c(-c2cnc3ccc(NCCOCC(C)C)nn23)s1 [3-(2,4-dimethylthiazol-5-yl)-N-(2-isobutoxyethyl)imidazo[1,2-b]pyridazin-6-amine]",IC50,≤ 1 µM
"CC(C)(C)OCCCNc1ccc2ncc(-c3ccnc(N)c3)n2n1 [3-(2-aminopyridin-4-yl)-N-(3-(tert-butoxy)propyl)imidazo[1,2-b]pyridazin-6-amine]",IC50,≤ 1 µM
"CCCCNc1ccc2ncc(-c3ccnc(N)c3)n2n1 [3-(2-aminopyridin-4-yl)-N-butylimidazo[1,2-b]pyridazin-6-amine]",IC50,≤ 1 µM
"COc1ncccc1-c1cnc2ccc(NCC3CCOC3)nn12 (centres unmarked) [3-(2-methoxypyridin-3-yl)-N-((tetrahydrofuran-3-yl)methyl)imidazo[1,2-b]pyridazin-6-amine]",IC50,≤ 1 µM
"COc1cnccc1-c1cnc2ccc(NCCCC(F)(F)F)nn12 [3-(3-methoxypyridin-4-yl)-N-(4,4,4-trifluorobutyl)imidazo[1,2-b]pyridazin-6-amine]",IC50,≤ 0.01 µM
"CCCCNc1ccc2ncc(-c3ccc(OCCN)cc3)n2n1 [3-(4-(2-aminoethoxy)phenyl)-N-butylimidazo[1,2-b]pyridazin-6-amine]",IC50,≤ 0.1 µM
"CC(C)(C)CCNc1ccc2ncc(-c3ccc(OCCCN)cc3)n2n1 [3-(4-(3-aminopropoxy)phenyl)-N-(3,3-dimethylbutyl)imidazo[1,2-b]pyridazin-6-amine]",IC50,≤ 0.1 µM
"NCCCOc1ccc(-c2cnc3ccc(NCCCc4ccccc4)nn23)cc1 [3-(4-(3-aminopropoxy)phenyl)-N-(3-phenylpropyl)imidazo[1,2-b]pyridazin-6-amine]",IC50,≤ 0.1 µM
"CC(C)(C)CCNc1ccc2ncc(-c3ccc(COCCN)cc3)n2n1 [3-(4-((2-aminoethoxy)methyl)phenyl)-N-(3,3-dimethylbutyl)imidazo[1,2-b]pyridazin-6-amine]",IC50,≤ 0.1 µM
"CCCCCNc1ccc2ncc(-c3ccc(CNCCOC)cc3)n2n1 [3-(4-(((2-methoxyethyl)amino)methyl)phenyl)-N-pentylimidazo[1,2-b]pyridazin-6-amine]",IC50,≤ 1 µM
"CCCCNc1ccc2ncc(-c3ccc(CN)cc3)n2n1 [3-(4-(Aminomethyl)phenyl)-N-butylimidazo[1,2-b]pyridazin-6-amine]",IC50,≤ 1 µM
"NCc1ccc(-c2cnc3ccc(NC4COC5(CCCC5)C4)nn23)cc1 (centres unmarked) [3-(4-(aminomethyl)phenyl)-N-(1-oxaspiro[4.4]nonan-3-yl)imidazo[1,2-b]pyridazin-6-amine]",IC50,≤ 0.1 µM
"NCc1ccc(-c2cnc3ccc(NCCOC4CCCC4)nn23)cc1 [3-(4-(aminomethyl)phenyl)-N-(2-(cyclopentyloxy)ethyl)imidazo[1,2-b]pyridazin-6-amine]",IC50,≤ 0.1 µM
"CC(C)(C)COCCNc1ccc2ncc(-c3ccc(CN)cc3)n2n1 [3-(4-(aminomethyl)phenyl)-N-(2-(neopentyloxy)ethyl)imidazo[1,2-b]pyridazin-6-amine]",IC50,≤ 0.1 µM
"CC(C)(C)OCCNc1ccc2ncc(-c3ccc(CN)cc3)n2n1 [3-(4-(aminomethyl)phenyl)-N-(2-(tert-butoxy)ethyl)imidazo[1,2-b]pyridazin-6-amine]",IC50,≤ 0.1 µM
"NCc1ccc(-c2cnc3ccc(NCCc4ccccc4OC(F)(F)F)nn23)cc1 [3-(4-(aminomethyl)phenyl)-N-(2-(trifluoromethoxy)phenethyl)imidazo[1,2-b]pyridazin-6-amine]",IC50,≤ 0.01 µM
"NCc1ccc(-c2cnc3ccc(NCCC4CCCCC4)nn23)cc1 [3-(4-(aminomethyl)phenyl)-N-(2-cyclohexylethyl)imidazo[1,2-b]pyridazin-6-amine]",IC50,≤ 0.1 µM
"NCc1ccc(-c2cnc3ccc(NCCC4CC4)nn23)cc1 [3-(4-(aminomethyl)phenyl)-N-(2-cyclopropylethyl)imidazo[1,2-b]pyridazin-6-amine]",IC50,≤ 1 µM
"CCOc1ccccc1CCNc1ccc2ncc(-c3ccc(CN)cc3)n2n1 [3-(4-(aminomethyl)phenyl)-N-(2-ethoxyphenethyl)imidazo[1,2-b]pyridazin-6-amine]",IC50,≤ 0.1 µM
"NCc1ccc(-c2cnc3ccc(NCCc4ccccc4F)nn23)cc1 [3-(4-(aminomethyl)phenyl)-N-(2-fluorophenethyl)imidazo[1,2-b]pyridazin-6-amine]",IC50,≤ 0.1 µM
"CC(C)COCCNc1ccc2ncc(-c3ccc(CN)cc3)n2n1 [3-(4-(aminomethyl)phenyl)-N-(2-isobutoxyethyl)imidazo[1,2-b]pyridazin-6-amine]",IC50,≤ 0.1 µM
"CC(C)OCCNc1ccc2ncc(-c3ccc(CN)cc3)n2n1 [3-(4-(aminomethyl)phenyl)-N-(2-isopropoxyethyl)imidazo[1,2-b]pyridazin-6-amine]",IC50,≤ 0.1 µM
"COc1ccccc1CCNc1ccc2ncc(-c3ccc(CN)cc3)n2n1 [3-(4-(aminomethyl)phenyl)-N-(2-methoxyphenethyl)imidazo[1,2-b]pyridazin-6-amine]",IC50,≤ 0.01 µM
"CCC(C)CNc1ccc2ncc(-c3ccc(CN)cc3)n2n1 (centres unmarked) [3-(4-(aminomethyl)phenyl)-N-(2-methylbutyl)imidazo[1,2-b]pyridazin-6-amine]",IC50,≤ 1 µM
"NCc1ccc(-c2cnc3ccc(NCCOc4ccccc4)nn23)cc1 [3-(4-(aminomethyl)phenyl)-N-(2-phenoxyethyl)imidazo[1,2-b]pyridazin-6-amine]",IC50,≤ 1 µM
